In patent US20240209010A1, “PRODRUGS OF AZO COMPOUNDS AND THEIR SALTS” (KASHIV BIOSCIENCES, LLC, priority 2021, published 2024):

Tests used:
[1] = system: P2RX3 gene; assay: Gene expression analysis (qRT-PCR) of P2RX3 in cyclophosphamide-treated RT4 cells; type: cell-based, Human; conditions: 100 μM CYP + 10 μM compound, 4 h incubation, compared to CYP control
Experimental: Study Design: With objective of evaluating effect of text compounds on the pain related markers we have utilized human urothelial “RT4 (Human Urinary bladder carcinoma cells)” cells, treated with test compounds in combination with cyclophosphamide (CYP) and performed gene expression analysis of pain related gene. For gene expression study, 0.5×10^6 cells were treated with cyclophosphamide and test compounds. Cells were incubated for 4 h at 37° C. Experimental Groups: Groups 1: Untreated cells, Group 2: CYP treated (100 μM CYP), Group 3: CYP+Compound IX (100 μM CYP+10 μM Compound IX).
At the end of 4 hr incubation, medium was removed from all wells and cells were washed once with sterile PBS. RNA isolation was performed as per the manufacturer's instruction utilizing Qiagen RNA mini kit (Cat #74104). Followed by cDNA synthesis using 3 μg of total RNA each sample utilizing Superscript III First strand cDNA synthesis system (Thermo fisher, Cat No 18080051). qRT-PCR was performed using the SYBR green master mix (PCR Biosystems, Cat No:—PB20.14) and primers specific for P2RX3 gene. Upon the completion of PCR, the data was analysed using the CFX manager software. The Fold change of the expression was calculated using the following formula: 2^−ddCT=2^−((CT target −CT internal control)

[2] = Pharmacokinetic data in rat after single oral administration; type: in vivo; conditions: analyte = the administered compound itself, single oral dose (No. 12 31.2, No. 43 32.8, No. 446 34.8, No. 449 25, XIII 21.2, No. 54 27 mg/kg), fasted female Sprague Dawley rat
Experimental: The objective of the study was to evaluate pharmacokinetic exposure of Compound XI along with Compound No. 12/Compound No. 43/Compound No. 446/Compound No. 449/Compound XIII/Compound No. 54 after per oral dosing at 31.2 mg/kg of Compound No. 12, 32.8 mg/kg of Compound No. 43, 34.8 mg/kg of Compound No. 446, 25 mg/kg of Compound No. 449, 21.2 mg/kg of Compound XIII and 27 mg/kg of Compound No. 54 in female Sprague Dawley rat. This study was performed in overnight fasted female Sprague Dawley rat. Dose formulation was prepared freshly on the day of dosing. 0.1% tween-80+99.9% of 0.5% CMC was used as vehicle for the preparation of dose formulation.
Blood samples were collected through retro orbital plexus puncture at pre-dose, 0.25, 0.5, 1, 2, 4, 8, 12 and 24 h post-dose. At each time point, blood was withdrawn and transferred into a pre-labeled of micro centrifuge tubes containing anti-coagulant. Tube was mixed gently by inverting the tube to facilitate mixing of anticoagulant with the blood. All blood/plasma samples were analysed using fit-for purpose LC-MS/MS method.
The pharmacokinetic parameters were calculated using standard non-compartmental analysis (Phoenix® software, version 8.3, Pharsight Corporation, Mountain View, California 94040/USA) using linear trapezoidal method with linear interpolation.

SMILES | P2RX3 gene expression (fold change) [1] | AUC% Extrap—obs [2] [%] | AUC(0-t) ([2]; in vivo) [ng·h/mL] | Tmax ([2]; in vivo) [min] | Cmax ([2]; in vivo, arithmetic mean) [ng/mL] | AUC(0-inf) ([2]; in vivo, read-out: AUCinf—obs) [ng·h/mL]
Nc1nc(N)c(/N=N/c2ccccc2)cc1O [Compound IX] | reduction in P2RX3 gene expression | – | – | – | – | –
NCC(=O)Nc1ccc(/N=N/c2ccccc2OC(=O)N2CCOCC2)c(N)n1 [Compound No. 446] | – | 11.73 | 151 | 15 | 145 | 170
